From article PMC10447463, “Data-mining unveils structure–property–activity correlation of viral infectivity enhancing self-assembling peptides” (Nature Communications, 2023)
Several values for one entry are separate records, joined by “and”; a condition that tells them apart may be missing. Equal values may be shown once. Read-outs that look alike come from different tables or passages of the source.

Tests used:
[1] = Zeta-potential measurement; assay type: physicochemical; settings: for Zeta pot. / mV: 1 mg/mL in PBS pH 7.4 from 10 mg/mL DMSO stock, 1 d RT, 60 µL diluted in 600 µL 1 mM KCl, Zetasizer Nano ZS, Smoluchowski, mean of triplicate
Outline: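 Zeta potentials of aggregated peptides come from electrophoretic mobility (Smoluchowski model) in 1 mM KCl after a 1 d RT incubation at 1 mg/mL in PBS, pH 7.4.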

[2] = Turbidity, derived count rate of scattered light; assay type: physicochemical; settings: for Count Rate / kcps: derived count rate of scattered light at 633 nm, 173°, from zeta-potential measurement, 0.1 mg/mL in 1 mM KCl after 1 d at 1 mg/mL in PBS, turbidity / microscopic aggregation, mean of triplicate
Outline: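 Samples: 1 mg/mL in PBS pH 7.4 (from DMSO), 1 d at RT, then diluted in 1 mM KCl immediately before measurement. Triplicates, two independent runs averaged.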

[3] = Turbidity, derived count rate of scattered light; assay type: physicochemical; settings: for Count Rate: derived count rate of scattered light (turbidity); for Log10 Count Rate: turbidity, derived count rate of scattered light, data of Figure 2D
[4] = test system: HIV-1 infection of TZM-bl cells; experiment: HIV-1 infectivity enhancement assay, β-galactosidase luminescence; assay type: cell-based; settings: for Rel-EFC: infection relative to EF-C (QCKIKQIINMWQ = 1); for Log10 Infection Rel EFC: log10 of infection relative to EF-C; for Log Infectivity: Log10 infection relative to EF-C, TZM-bl cells, asymmetric std dev errors; for Log10 Infection Rel EF-C: HIV-1 infection of TZM-bl cells; for Log10 of Rel to EFC (Feb2021): Log10 of infection relative to EF-C, all peptides of FigS16; for Abs. Inf. / RLU s-1: absolute infection rate, peptide 1.3 µM on cells, virus preincubated 10 min with fibrils, read 3 days post infection, mean of triplicate; for Abs. Inf.: absolute infection signal, HIV-1 on TZM-bl cells, β-galactosidase luminescence; for Log10 Inf. rel. to EF-C: log10 of HIV-1 infection of TZM-bl cells relative to EF-C (EF-C = 0)
[5] = β-sheet content by ATR-FT-IR; assay type: physicochemical; settings: for b -sheet / %: Fig. S7 panel A, β-sheet content by ATR-FT-IR; for ß-sheet / %: ATR-FT-IR of lyophilised 1 mg/mL PNF solution, peak integral ratio 1625-1635 cm-1, measured once
Procedure: For ATR FT–IR spectroscopy measurements, 200 µL of the respective 1 mg/mL PNF solution was lyophilized and the resulting powder used for measurement. All spectra were recorded on a Bruker Tensor 27 spectrometer with a diamond crystal as ATR element (PIKE MiracleTM, spectral resolution 2 cm^-1). Every sample was measured with 64 scans. Data were analyzed with OriginLab software and calculation of β–sheet content was conducted according to a previous report. TEM. For TEM measurements 5 µL of PNF fibrils (1 mg/mL) were placed on copper grids coated with carbon and formvar layer (300 mesh, Plano GmbH). After 10 min incubation time, the grids were staining with 4% uranyl acetate solution for 2.5 min and washed with water. Measurements were performed on a Jeol 1400 electron microscope with 120 kV acceleration voltage. CR Assay. For the determination of the amount of peptide monomer converting into nanostructures the amine reactive dye fluorescamine was used analogous to a previous reported protocol. Briefly, 100 µL of the preformed PNF solution was centrifuged in a Vivaspin 500 tube (3 kDa MWCO) to separate fibers from free peptide monomer (16200 x g, 4 °C, 45 min). The filtrate and 100 μL of the non-filtered PNF sample were lyophilized and dissolved in 30 μL DMSO. 10 μL of the filtrate and non-filtered DMSO samples were submitted in a black UV Star® 384 microliter well–plates (Greiner bio–one) and 3 μL of the fluorescamine solution (10 mg/mL, DMSO) was added to measure the fluorescence enhancement. After 20 min of incubation at RT, fluorescence was recorded on an Infinite® M1000 PRO microplate reader (Tecan) at λem = 470 nm upon excitation at λex = 365 nm with 10 nm bandwidths and multiple reads per well (3×3). Measurements were repeated in triplicates and averaged with standard deviation. All values were calculated as n-fold fluorescence enhancement (DMSO only as a reference was set to 1). The conversion rate CR was defined according to the equation Eq. (3).3 CR=100−100×fluorescenceintensityfiltrate/fluorescenceintensityoriginal[%]

[6] = zeta potential of peptide assemblies
[7] = zeta-potential of peptide, source data of Figure 2C
[8] = zeta-potential of the peptide assemblies, mean, Figure 3A source data
[9] = Log10 of derived count rate of scattered light (turbidity)
[10] = log10 of derived count rate of scattered light (turbidity)
[11] = turbidity, Log10 of derived count rate of scattered light, Figure 3A source data
[12] = Fig. S7 panel A (plotted against β-sheet content)
[13] = Fig. S7 panel B (plotted against CR), rounded to two decimals
[14] = Log10 of infection rate relative to EF-C, Figure 3A source data
[15] = infection rate relative to EF-C, log10, data of Figure 2D
[16] = infection rate relative to EF-C, log10, source data of Figure 2C
[17] = logarithm of count rate in kcps
[18] = turbidity, log10 of derived count rate of scattered light
[19] = HIV-1 infection relative to EF-C, Fig 23 plot, panels A and B, mean of 3 values
[20] = HIV-1 infection relative to EF-C, Fig 23 plot, single data point, replicate 1
[21] = HIV-1 infection relative to EF-C, Fig 23 plot, single data point, replicate 2
[22] = HIV-1 infection relative to EF-C, Fig 23 plot, single data point, replicate 3
[23] = n-fold infection vs virus only, relative to that of EF-C, 1.3 µM peptide

## CEFEFQFNMWQ
[1]; [6]
  Zeta-Pot.: -34.23
[1]; [7]
  Zeta-Potential / mV: -24.5 mV
[1]; [8]
  Zeta-Potential / mV: -34.23 mV
[2]; [9]
  Log10 Count Rate: 2.27
[2]
  Count Rate / kcps: 186 kcps
[2]; [10]
  Log10 Count Rate: 2.27
[2]; [11]
  Log10 Count Rate: 2.27
[3]
  Count Rate: 186.3
  Log10 Count Rate: 2.27
[4]; 1.3 µM peptide
  Rel-EFC: 0,14
  Log10 Infection Rel EFC: -0,85
[4]; [12]
  Log Infectivity: -0.8509
[4]; [13]
  Log Infectivity: -0.85
[4]; [14]
  Log10 Infection Rel EF-C: -0.85
[4]; [15]
  Log10 Infection Rel EF-C: -0.8509
[4]; [16]
  Log10 Infection Rel EF-C: -0.8509
[4]
  Log10 of Rel to EFC (Feb2021): -0.85
[5]
  b -sheet / %: 51.48%

## CEIEIQINM
[1]; [6]
  Zeta-Pot.: -15.3
[1]; [7]
  Zeta-Potential / mV: -22.07 mV
[1]; [8]
  Zeta-Potential / mV: -15.3 mV
[2]; [9]
  Log10 Count Rate: 1.767
[2]
  Count Rate / kcps: 58 kcps
[2]; [10]
  Log10 Count Rate: 1.767
[2]; [11]
  Log10 Count Rate: 1.767
[3]
  Count Rate: 58.43
  Log10 Count Rate: 1.767
[4]; 1.3 µM peptide
  Rel-EFC: 0,07
  Log10 Infection Rel EFC: -1,19
[4]; [12]
  Log Infectivity: -1.186
[4]; [13]
  Log Infectivity: -1.19
[4]; [14]
  Log10 Infection Rel EF-C: -1.19
[4]; [15]
  Log10 Infection Rel EF-C: -1.186
[4]; [16]
  Log10 Infection Rel EF-C: -1.186
[5]
  b -sheet / %: 46.31%

## CEIEIQINMWQ
[1]; [6]
  Zeta-Pot.: -25.8
[1]; [7]
  Zeta-Potential / mV: -26.07 mV
[1]; [8]
  Zeta-Potential / mV: -25.8 mV
[2]; [9]
  Log10 Count Rate: 3.196
[2]
  Count Rate / kcps: 1570 kcps
[2]; [10]
  Log10 Count Rate: 3.196
[2]; [11]
  Log10 Count Rate: 3.196
[3]
  Count Rate: 1570
  Log10 Count Rate: 3.196
[4]; 1.3 µM peptide
  Rel-EFC: 0,22
  Log10 Infection Rel EFC: -0,66
[4]; [12]
  Log Infectivity: -0.6602
[4]; [13]
  Log Infectivity: -0.66
[4]; [14]
  Log10 Infection Rel EF-C: -0.66
[4]; [15]
  Log10 Infection Rel EF-C: -0.6602
[4]; [16]
  Log10 Infection Rel EF-C: -0.6602
[4]
  Log10 of Rel to EFC (Feb2021): -0.66
[5]
  b -sheet / %: 49.9%

## CKAKAQA
[1]; [6]
  Zeta-Pot.: -8.01
[1]; [7]
  Zeta-Potential / mV: -5.031 mV
[1]; [8]
  Zeta-Potential / mV: -8.01 mV
[2]; [9]
  Log10 Count Rate: 2.56
[2]
  Count Rate / kcps: 363 kcps
[2]; [10]
  Log10 Count Rate: 2.56
[2]; [11]
  Log10 Count Rate: 2.56
[3]
  Count Rate: 362.7
  Log10 Count Rate: 2.56
[4]; 1.3 µM peptide
  Rel-EFC: 0,03
  Log10 Infection Rel EFC: -1,5
[4]; [12]
  Log Infectivity: -1.501
[4]; [13]
  Log Infectivity: -1.5
[4]; [14]
  Log10 Infection Rel EF-C: -1.5
[4]; [15]
  Log10 Infection Rel EF-C: -1.501
[4]; [16]
  Log10 Infection Rel EF-C: -1.501
[5]
  b -sheet / %: 34.73%

## CKAKAQANM
[1]
  Zeta-Pot.: -7.773
  Zeta pot. / mV: -7.8 mV
[1]; [7]
  Zeta-Potential / mV: -4.618 mV
[1]; [8]
  Zeta-Potential / mV: -7.77 mV
[2]; [9]
  Log10 Count Rate: 2.317
[2]
  Count Rate / kcps: 207 kcps
[2]; [17]
  Log10 Count Rate: 2.3
[2]; [11]
  Log10 Count Rate: 2.317
[2]; [18]
  Log10 Count Rate: 2.317
[3]
  Count Rate: 207.3
  Log10 Count Rate: 2.317
[4]; 1.3 µM peptide
  Rel-EFC: 0,03
  Log10 Infection Rel EFC: -1,5
[4]; [12]
  Log Infectivity: -1.504
[4]; [13]
  Log Infectivity: -1.5
[4]; [14]
  Log10 Infection Rel EF-C: -1.5
[4]; [15]
  Log10 Infection Rel EF-C: -1.504
[4]; [16]
  Log10 Infection Rel EF-C: -1.504
[4]; [19]
  Inf. rel. EF-C: 0.01839
[4]; [20]
  Inf. rel. EF-C: 0.01398
[4]; [21]
  Inf. rel. EF-C: 0.02152
[4]; [22]
  Inf. rel. EF-C: 0.01966
[4]
  Abs. Inf. / RLU s-1: 430 RLU s-1
  Abs. Inf.: 430
  Log10 Inf. rel. to EF-C: -1.504
[4]; [23]
  Inf. rel. EF-C: 0.03
[5]
  ß-sheet / %: 34%
  b -sheet / %: 34.22%

## CKAKAQANMWQ
[1]
  Zeta-Pot.: 0.7373
  Zeta pot. / mV: 0.7 mV
[1]; [7]
  Zeta-Potential / mV: 2.155 mV
[1]; [8]
  Zeta-Potential / mV: 0.74 mV
[2]; [9]
  Log10 Count Rate: 0.9526
[2]
  Count Rate / kcps: 9 kcps
[2]; [17]
  Log10 Count Rate: 1 and 0.9528
[2]; [11]
  Log10 Count Rate: 0.9526
[2]; [18]
  Log10 Count Rate: 0.9526
[3]
  Count Rate: 8.967
  Log10 Count Rate: 0.9526
[4]; 1.3 µM peptide
  Rel-EFC: 0,04
  Log10 Infection Rel EFC: -1,36
[4]; [12]
  Log Infectivity: -1.359
[4]; [13]
  Log Infectivity: -1.36
[4]; [14]
  Log10 Infection Rel EF-C: -1.36
[4]; [15]
  Log10 Infection Rel EF-C: -1.359
[4]; [16]
  Log10 Infection Rel EF-C: -1.359
[4]; [19]
  Inf. rel. EF-C: 0.02574
[4]; [20]
  Inf. rel. EF-C: 0.02321
[4]; [21]
  Inf. rel. EF-C: 0.03098
[4]; [22]
  Inf. rel. EF-C: 0.02305
[4]
  Abs. Inf. / RLU s-1: 600 RLU s-1
  Abs. Inf.: 600
  Log10 Inf. rel. to EF-C: -1.359
[4]; [23]
  Inf. rel. EF-C: 0.04
[5]
  ß-sheet / %: 39%
  b -sheet / %: 39.38%
